Assay [1] addresses PSMA (Homo sapiens (Human), UniProt Q04609). Put plainly: PSMA inhibitory activity (NAAG hydrolysis by LNCaP cell lysate, Amplex Red glutamate detection). The assay is classed as biochemical. Particulars: for Ki / inhibition at 6.667 µM: LNCaP cell lysate; for Ki: NAAG substrate, Ki by Cheng-Prusoff equation; for inhibition at 6.667 µM: inhibitor 6667 nM, read-out: % inhibited at 6667 nM. As for the experimental part: A LNCaP cell lysate (total protein concentration: 125 μg/mL) was prepared in advance. 25 μL of the cell lysate, 25 μL of the inhibitor and 25 μL of N-acetylaspartylglutamate (NAAG, 16 μM) were incubated together in a 96-well plate (Costar Assay Plate, Cat#. 3925) at 37° C. for 180 min. The amount of glutamate released by hydrolysis of NAAG was measured using an Amplex Red Glutamic Acid Kit (Molecular Probes Inc., Eugene, OR) working solution (50 μL) after incubation for 30 min Fluorescence were measured using Synergy H1 Hybrid Reader (BioTek Instruments, Inc., Winooski, Vermont) at excitation wavelength of 530 nm and emission wavelength of 590 nm. An inhibition curve was plotted by a semi-logarithmic method. […] The inhibition constant (Ki) of the enzyme was calculated by the Cheng-Prusof equation. Each experiment was performed in triplicates. Data analysis was performed by GraphPad Prism 7.0 (GraphPad Software, San Diego, California).

Assay [2] deals with PSMA (LNCaP cells with high PSMA expression) (Homo sapiens (Human), UniProt Q04609). Put plainly: Flow cytometric analysis: inhibition of YC-36 staining of LNCaP cells. As to conditions: 2 μM YC-36 plus 200 μM Compound S2 (100×), 1 h, room temperature, flow cytometry. The assay is classed as cell-based. The method, then: LNCaP cells were diluted to 1×10^6/mL with RPMI-1640 (containing 10% FBS). For staining, the cells and 2 μM YC-36 were incubated at room temperature for 1 h, and then washed twice with the same medium. The cells were resuspended in cold PBS. For the inhibition group, the cells were incubated with 2 μM YC-36 and 200 μM Compound S2 for 1 hour at room temperature. The cells were analyzed by BD Influs Cell Sorter (BD Biosciences, San Jose, CA95131, USA) flow cytometry and the FlowJo software, and the results are shown in FIG. 6. The black area (left in Panel A) represents the LNCaP cells without dye, and the blue area (right in Panel A) represents the LNCaP cells after co-incubation with YC-36.
YC-36 is a fluorescent molecule having a high affinity for PSMA, and can selectively stain cells with high PSMA expression (Kiess, A.P., et al., Auger Radiopharmaceutical Therapy Targeting Prostate […]. J Nucl Med, 2015. 56(9): p. 1401-1407).

For assay [3], the target named is PSMA (LNCaP cells) (Homo sapiens (Human), UniProt Q04609). Briefly: Fluorescence microscopy imaging of LNCaP cells stained with Compound S1, with or without Compound S2. The assay is classed as cell-based. Particulars: room temperature. The method, then:
LNCaP cells were diluted to 1×10^6/mL with RPMI-1640 (containing 10% FBS). For staining, the cells and 2 μM Compound S1 were incubated at room temperature for 1 h. For the inhibition group, the cells were incubated with 2 μM Compound S1 and 200 μM Compound S2 together for 1 h at room temperature. After the staining was completed, excess dye compound was removed by centrifugation, and the cells were resuspended in cold PBS and blown well, 100 μL of which was taken and added to a 96-well plate, left for several minutes and then observed under a fluorescence microscope.

The results in this text go back to patent publication US20230414794A1, “PSMA INHIBITOR, COMPOUND AND APPLICATION” (PEKING UNIVERSITY FIRST HOSPITAL, priority 2019, published 2023).

Each structure is given as a SMILES string.

Chain of PSMA (Q04609 whole entry): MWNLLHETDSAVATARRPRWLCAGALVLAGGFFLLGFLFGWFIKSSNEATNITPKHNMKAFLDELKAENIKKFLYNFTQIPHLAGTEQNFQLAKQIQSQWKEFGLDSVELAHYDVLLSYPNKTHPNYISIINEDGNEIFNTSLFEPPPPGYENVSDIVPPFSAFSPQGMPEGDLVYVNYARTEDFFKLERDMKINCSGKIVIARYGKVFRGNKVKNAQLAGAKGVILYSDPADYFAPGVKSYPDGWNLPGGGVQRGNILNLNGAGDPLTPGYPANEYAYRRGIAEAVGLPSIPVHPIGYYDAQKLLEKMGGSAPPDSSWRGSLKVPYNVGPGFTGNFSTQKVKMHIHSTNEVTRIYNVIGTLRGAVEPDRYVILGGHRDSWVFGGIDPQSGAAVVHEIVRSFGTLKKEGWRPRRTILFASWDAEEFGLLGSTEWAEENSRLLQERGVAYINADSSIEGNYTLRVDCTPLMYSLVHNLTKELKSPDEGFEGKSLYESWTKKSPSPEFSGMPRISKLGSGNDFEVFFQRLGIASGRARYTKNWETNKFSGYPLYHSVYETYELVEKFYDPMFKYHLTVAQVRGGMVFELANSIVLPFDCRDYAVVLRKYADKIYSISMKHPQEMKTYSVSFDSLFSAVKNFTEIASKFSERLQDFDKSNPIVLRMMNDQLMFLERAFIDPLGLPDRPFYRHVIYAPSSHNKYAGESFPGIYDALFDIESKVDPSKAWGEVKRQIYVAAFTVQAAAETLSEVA
Chain of PSMA (LNCaP cells) (Q04609 whole entry): as above
Chain of PSMA (LNCaP cells with high PSMA expression) (Q04609 whole entry): as above

Regarding `O=C(N[C@@H](CCCCNC(=O)c1ccc(I)cc1)C(=O)O)N[C@@H](CNC(=O)C(=O)O)C(=O)O` [Compound S2, (45,85)-14-(4-iodophenyl)-1,6,14-trioxo-2,5,7,13-tetraazatetradecane-1,4,8-tric arboxylic acid], the Ki (in general, the dissociation constant of the complex between target and ligand, obtained from inhibition or displacement) in assay [1] is 0.08 nM. Besides, the “affinity relative to ZJ-43” value in assay [1] (fold higher affinity than ZJ-43, from Ki in Table 1) was found to be 44 times. Further, in assay [2], the “inhibition of staining of LNCaP cells by YC-36” value was “significantly inhibited”. In assay [3] (2 μM Compound S1 plus 200 μM Compound S2 (100×), 1 h), the “inhibition of staining of LNCaP cells by the blue dye Compound S1” value is recorded as “significantly inhibit”.

For `CC(C)C[C@H](NC(=O)N[C@@H](CNC(=O)c1c[nH]cn1)C(=O)O)C(=O)O` [Comparative Compound DS2, (S)-2-(3-((S)-1-carboxy-2-(1H-imidazole-4-carboxamido)ethyl)ureido)-4-methylpentanoic acid], in assay [1], the inhibitory constant (Ki) was over 1000 nM and the inhibition at 6.667 µM came to 20.6%.

`CC(C)C[C@H](NC(=O)N[C@@H](CNC(=O)c1ncc[nH]1)C(=O)O)C(=O)O` [Comparative Compound DS1, (S)-2-(3-((S)-1-carboxy-2-(1H-imidazole-2-carboxamido)ethyl)ureido)-4-methylpentanoic acid]: in assay [1], the Ki was over 1000 nM and the inhibition at 6.667 µM is 10.7%.

As for `CC(C)C[C@H](NC(=O)N[C@@H](CNC(=O)C(=O)O)C(=O)O)C(=O)O` [Compound S3, (S)-2-(3-((S)-1-carboxy-2-(carboxyformamido)ethyl)ureido)-4-methylpentanoic acid], the Ki in assay [1] was 5.69 nM.

Consider `Nc1ccc2c(CC(=O)NCCCC[C@H](NC(=O)N[C@@H](CNC(=O)C(=O)O)C(=O)O)C(=O)O)cc(=O)oc2c1` [Compound S1, (45,85)-15-(7-amino-2-oxo-2H-chromen-4-yl)-1,6,14-trioxo-2,5,7,13-tetraazapentadecane-1,4,8-tricarboxylic acid], for which the Ki in assay [1] is 5.96 nM. Also, in assay [3] (2 μM Compound S1, 1 h), the “staining of LNCaP cells” value is “stained the cells by specific binding to PSMA”.

For `CC(C)C[C@H](NC(=O)N[C@@H](CNC(=O)c1c[nH]nn1)C(=O)O)C(=O)O` [Comparative Compound DS3, (S)-2-(3-((S)-1-carboxy-2-(1H-1,2,3-triazole-4-carboxamido)ethyl)ureido)-4-methylpentanoic acid], in assay [1], the Ki is over 1000 nM and the inhibition at 6.667 µM is 47.3%.
